In US20020052295A1, “Diacyl derivatives of propylene diamine having herbicidal activity” (priority 1999, published 2002):

Experiments:
Conditions in all cases: lowest tested rate giving 80% or greater inhibition, approx. 14 days after planting and treating, greenhouse
[1] = system: SORHA; test: Pre-emergence herbicidal activity on SORHA (johnsongrass, seedling); format: in vivo, Sorghum halepense
Description: (§1) All such uses, and the biological activity enabling such uses, are embraced by the term “herbicidal” herein. Tables 15 and 16 summarize results of tests conducted as described below to determine the pre-emergence herbicidal activity, in the form of a GR80 value, of illustrative compounds of this invention. […] Where herbicidal activity was evident but 80% inhibition was not achieved at the highest rate tested (typically 1000 g/ha), an asterisk (*) is shown in the following tables. Herbicidal activity evident in the form of symptoms of phytotoxicity, in the absence of at least 80% inhibition at any rate, is indicated in the tables by “phyto”. A blank cell in the following tables indicates no herbicidal or phytotoxic response at any rate tested.
(§2) The pre-emergence tests were conducted by the following procedure. Topsoil was sieved to pass through a 1.27 cm screen. Fertilizer was added to the topsoil and the mixture was then sterilized by heating. The topsoil mixture was placed in a pot and compacted to a depth of 1.0 to 1.25 cm from the top of the pot. Seeds of each of several monocotyledonous and dicotyledonous annual plant species were placed on top of the soil. Additional soil was subsequently placed over the seeds to level-fill the pot. A known amount of each test compound dissolved or suspended in an appropriate organic solvent was diluted with a 50:50 mix of acetone and water and applied to the surface of the soil. After treatment the plants were placed in a greenhouse with a 30/21° C. day/night temperature regime where they received 0.64 cm of overhead irrigation. All subsequent watering consisted of a light overhead mist and/or subirrigation as needed for germination and growth.
(§3) Approximately 14 days after planting and treating, the plants were observed and herbicidal efficacy recorded as percent inhibition by comparison with untreated plants.
(§4) The plant species usually regarded as weeds which were utilized in the tests are identified in the tables below according to the following legend, in which “d” indicates a dicotyledonous species and “m” a monocotyledonous species. All monocotyledonous species included in the tests herein are grasses.

[2] = system: DIGSA; test: Pre-emergence herbicidal activity on DIGSA (large crabgrass); format: in vivo, Digitaria sanguinalis
Description: as §1, §2, §3, §4

[3] = system: PANMI; test: Pre-emergence herbicidal activity on PANMI (wild proso millet); format: in vivo, Panicum miliaceum
Description: as §1, §2, §3, §4

[4] = system: AMARE; test: Pre-emergence herbicidal activity on AMARE (redroot pigweed); format: in vivo, Amaranthus retroflexus
Description: as §1, §2, §3, §4

[5] = system: PANDI; test: Pre-emergence herbicidal activity on PANDI (fall panicum); format: in vivo, Panicum dichotomiflorum
Description: as §1, §2, §3, §4

[6] = system: CONAR; test: Pre-emergence herbicidal activity on CONAR (field bindweed); format: in vivo, Convolvulus arvensis
Description: as §1, §2, §3, §4

[7] = system: CHEAL; test: Pre-emergence herbicidal activity on CHEAL (common lambsquarters); format: in vivo, Chenopodium album
Description: as §1, §2, §3, §4

[8] = system: SOLNI; test: Pre-emergence herbicidal activity on SOLNI (black nightshade); format: in vivo, Solanum nigrum
Description: as §1, §2, §3, §4

[9] = system: SETFA; test: Pre-emergence herbicidal activity on SETFA (giant foxtail); format: in vivo, Setaria faberi
Description: as §1, §2, §3, §4

[10] = system: BRAPP; test: Pre-emergence herbicidal activity on BRAPP (broadleaf signalgrass); format: in vivo, Brachiaria platyphylla
Description: as §1, §2, §3, §4

[11] = system: POROL; test: Pre-emergence herbicidal activity on POROL (common purslane); format: in vivo, Portulaca oleracea
Description: as §1, §2, §3, §4

[12] = system: ABUTH; test: Pre-emergence herbicidal activity on ABUTH (velvetleaf); format: in vivo, Abutilon theophrasti
Description: as §1, §2, §3, §4

[13] = system: CIRAR; test: Pre-emergence herbicidal activity on CIRAR (canada thistle, seedling); format: in vivo, Cirsium arvense
Description: as §1, §2, §3, §4

[14] = system: DATST; test: Pre-emergence herbicidal activity on DATST (jimsonweed); format: in vivo, Datura stramonium
Description: as §1, §2, §3, §4

[15] = system: ECHCG; test: Pre-emergence herbicidal activity on ECHCG (barnyardgrass); format: in vivo, Echinochloa crus-galli
Description: as §1, §2, §3, §4

| Compound | Pre-emergence activity (GR80) on SORHA [1] | Pre-emergence activity (GR80) on DIGSA [2] | Pre-emergence activity (GR80) on PANMI [3] | Pre-emergence activity (GR80) on AMARE [4] [g/ha] | Pre-emergence activity (GR80) on PANDI [5] | Pre-emergence activity (GR80) on CONAR [6] | Pre-emergence activity (GR80) on CHEAL [7] [g/ha] | Pre-emergence activity (GR80) on SOLNI [8] [g/ha] | Pre-emergence activity (GR80) on SETFA [9] | Pre-emergence activity (GR80) on BRAPP [10] | Pre-emergence activity (GR80) on PORAL [11] [g/ha] | Pre-emergence activity (GR80) on ABUTH [12] | Pre-emergence activity (GR80) on CIRAR [13] | Pre-emergence activity (GR80) on DATST [14] | Pre-emergence activity (GR80) on ECHCG [15] |
| --- | --- | --- | --- | --- | --- | --- | --- | --- | --- | --- | --- | --- | --- | --- | --- |
| CC(CNC(=O)c1cccc(C(F)(F)F)c1)NC(=O)c1cccc(F)c1Cl (centres unmarked) [Example 37] | 1000 g/ha | 250 g/ha | 500 g/ha | 64 | 250 g/ha | 250 g/ha | 125 | 250 | 250 g/ha | 500 g/ha | 64 | 250 g/ha | 250 g/ha | 250 g/ha | 1000 g/ha |
| CC(CNC(=O)c1cccc(C(F)(F)F)c1)NC(=O)c1cccc(Br)c1F (centres unmarked) [Example 56] | 750 g/ha | 64 g/ha | 125 g/ha | 64 | 250 g/ha | * (Where herbicidal activity was evident but 80% inhibition was not achieved at the highest rate tested (typically 1000 g/ha), an asterisk (*) is shown) | 32 | 64 | 125 g/ha | 500 g/ha | 32 | 500 g/ha | 32 g/ha | 250 g/ha | 750 g/ha |
| Cc1c(Br)cccc1C(=O)NC(C)CNC(=O)c1cccc(C(F)(F)F)c1 (centres unmarked) [Example 57] | * (Where herbicidal activity was evident but 80% inhibition was not achieved at the highest rate tested (typically 1000 g/ha), an asterisk (*) is shown) | 500 g/ha | 750 g/ha | 64 | 125 g/ha | 250 g/ha | 32 | 250 | 250 g/ha | 750 g/ha | 125 | 750 g/ha | 500 g/ha | 125 g/ha | * (Where herbicidal activity was evident but 80% inhibition was not achieved at the highest rate tested (typically 1000 g/ha), an asterisk (*) is shown) |
| Cc1cccc(C(=O)NC(C)CNC(=O)c2cccc(C(F)(F)F)c2)c1Cl (centres unmarked) [Example 65] | * (Where herbicidal activity was evident but 80% inhibition was not achieved at the highest rate tested (typically 1000 g/ha), an asterisk (*) is shown) | 250 g/ha | 750 g/ha | 125 | 125 g/ha | 250 g/ha | 32 | 500 | 250 g/ha | 500 g/ha | 125 | 250 g/ha | 125 g/ha | 250 g/ha | 500 g/ha |
| Cc1cccc(C(=O)NC(C)CNC(=O)c2cccc(C(F)(F)F)c2)c1Br (centres unmarked) [Example 66] | * (Where herbicidal activity was evident but 80% inhibition was not achieved at the highest rate tested (typically 1000 g/ha), an asterisk (*) is shown) | 750 g/ha | 750 g/ha | 250 | 500 g/ha | 250 g/ha | 125 | 750 | 500 g/ha | 1000 g/ha | 500 | 250 g/ha | 500 g/ha | 500 g/ha | 750 g/ha |
| CC(CNC(=O)c1cccc(C(F)(F)F)c1)NC(=O)c1cccc(SC(F)(F)F)c1 (centres unmarked) [Example 73] | phyto | phyto | phyto | 250 | * (Where herbicidal activity was evident but 80% inhibition was not achieved at the highest rate tested (typically 1000 g/ha), an asterisk (*) is shown) | phyto | 750 | 1000 | phyto | phyto | 750 | phyto | phyto | phyto | phyto |
| Cc1ccccc1C(=O)NC(C)CNC(=O)c1cccc(C(F)(F)F)c1 (centres unmarked) [Example 109] | * (Where herbicidal activity was evident but 80% inhibition was not achieved at the highest rate tested (typically 1000 g/ha), an asterisk (*) is shown) | 250 g/ha | 1000 g/ha | 250 | 750 g/ha | phyto | 750 | 750 | 750 g/ha | * (Where herbicidal activity was evident but 80% inhibition was not achieved at the highest rate tested (typically 1000 g/ha), an asterisk (*) is shown) | 750 | phyto | 750 g/ha | 500 g/ha | phyto |
| C[C@H](CNC(=O)c1cccc(C(F)(F)F)c1)NC(=O)Oc1cccc(C(F)(F)F)c1 [Example 229, R—N-[1-methyl-2-(3-trifluoromethyl)phenylcarbonylamino]ethyl-3-(trifluoromethyl)phenylcarbamate] | phyto | 1000 g/ha | phyto | 300 | 300 g/ha | phyto | 300 | 1000 | phyto | – | 100 | * (Where herbicidal activity was evident but 80% inhibition was not achieved at the highest rate tested (typically 1000 g/ha), an asterisk (*) is shown) | 300 g/ha | phyto | phyto |
